Source: patent publication US20130097726A1, “METHODS AND COMPOSITIONS FOR WEED CONTROL” (priority 2011, published 2013)

System: Glyphosate-sensitive Palmer amaranth (A. palmeri R-22) plants
Test: Topical ssDNA HPPD oligonucleotide mixture with or without mesotrione or atrazine: plant height / growth reduction
Assay type: in vivo, Amaranthus palmeri
Settings: twelve days after treatment
Method: Glyphosate-sensitive Palmer amaranth (A. palmeri R-22) plants were grown in the greenhouse (30/20 C day/night T; 14 hour photoperiod) in 4 inch square pots containing Sun Gro® Redi-Earth and 3.5 kg/cubic meter Osmocote® 14-14-14 fertilizer. Palmer amaranth plants at 5 to 10 cm in height were pre-treated with a mixture of eight 8 short (21-22mer) single-strand antisense oligo DNA polynucleotides (ssDNAas) targeting HPPD shown in Table 2 as HPPD_OLIGO1-8 (SEQ ID NO: 1083-1090, respectively) at two concentrations, 16 nmol and 80 nmol, formulated in 10 millimolar sodium phosphate buffer (pH 6.8) containing 2% ammonium sulfate and 0.5% Silwet L-77. Plants were treated manually by pipetting 10 μL of polynucleotide solution on four fully expanded mature leaves, for a total of 40 microliters of solution per plant. Twenty-four and forty-eight hours later, the plants were treated with mesotrione (Callisto®, 4 lb ai per gallon; HPPD inhibitor) at 13 g ai/ha, or atrazine (Aatrex® Nine-0®, 90% w/w ai; Photosystem II inhibitor) at 170 g ai/ha using a track-sprayer equipped with a 9501E nozzle and calibrated to deliver 93 liters of solution per hectare. […] Plant height was determined just before ssDNA treatment and at intervals upto twelve days after herbicide treatments to determine effect of the oligonucleotide and herbicide treatments.

Compound | control (growth reduction) (atrazine alone 170 g ai/ha) [%] | control (growth reduction) (mesotrione alone 13 g ai/ha) [%]
CCNc1nc(Cl)nc(NC(C)C)n1 [atrazine] | 29 | 
CS(=O)(=O)c1ccc(C(=O)C2C(=O)CCCC2=O)c([N+](=O)[O-])c1 [mesotrione] |  | 48
